# From the supplement of paper PMC10307832
# Columns and labels:
# Experiment in all cases: relative viability (nuclei count vs DMSO), 5 days (fraction); higher = more cells survive
# [1] = compound: Cn1c(=O)n(-c2ccc(C(C)(C)C#N)cc2)c2c3cc(-c4cnc5ccccc5c4)ccc3ncc21 [Dactolisib] + Cc1nc(NC(=O)N2CCC[C@H]2C(N)=O)sc1-c1ccnc(C(C)(C)C(F)(F)F)c1 [Alpelisib] (partner 2 µM)
# In short: (§1)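 Relative viability equals treated-well nuclei counts divided by vehicle-well nuclei counts. Counts came from 4× images of lung cancer cell lines grown in 1536-well plates for 5 days after pin-tool dosing on the day after seeding. Dosing used one drug alone or a fixed anchor-drug dose plus five library-drug doses (not always all listed) in √10 steps, and values are medians of duplicate plates.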
# [2] = compound: C1CCC(CC1)N(CCNCCC2=C3C(=C(C=C2)O)NC(=O)CO3)C(=O)CCNCCC4=CC(=C(C=C4)Cl)Cl [AZ505] + Cc1nc(Nc2ncc(C(=O)Nc3c(C)cccc3Cl)s2)cc(N2CCN(CCO)CC2)n1 [Dasatinib] (partner 0.075 µM)
# In short: as §1
# [3] = compound: Cn1c(=O)n(-c2ccc(C(C)(C)C#N)cc2)c2c3cc(-c4cnc5ccccc5c4)ccc3ncc21 [Dactolisib] + CCNC(=O)c1noc(-c2cc(C(C)C)c(O)cc2O)c1-c1ccc(CN2CCOCC2)cc1 [Luminespib] (partner 0.01 µM)
# In short: as §1
# [4] = compound: Cn1c(=O)n(-c2ccc(C(C)(C)C#N)cc2)c2c3cc(-c4cnc5ccccc5c4)ccc3ncc21 [Dactolisib] + Nc1ncn([C@H]2C[C@H](O)[C@@H](CO)O2)c(=O)n1 [Decitabine] (partner 2 µM)
# In short: as §1
cell line,measurement,setting,value
UMC-11,relative viability,[1]; first compound 0.002 µM,0.961
same,relative viability,[1]; first compound 0.006325 µM,0.852
same,relative viability,[1]; first compound 0.02 µM,0.63
same,relative viability,[1]; first compound 0.06325 µM,0.266
same,relative viability,[1]; first compound 0.2 µM,0.243
same,relative viability,[2]; first compound 0.08 µM,0.444
same,relative viability,[2]; first compound 0.253 µM,0.459
same,relative viability,[2]; first compound 0.8 µM,0.458
same,relative viability,[2]; first compound 2.53 µM,0.472
same,relative viability,[2]; first compound 8 µM,0.658
same,relative viability,[3]; first compound 0.002 µM,1.1
same,relative viability,[3]; first compound 0.006325 µM,0.781
same,relative viability,[3]; first compound 0.02 µM,0.737
same,relative viability,[3]; first compound 0.06325 µM,0.261
same,relative viability,[3]; first compound 0.2 µM,0.224
same,relative viability,[4]; first compound 0.002 µM,0.577
same,relative viability,[4]; first compound 0.006325 µM,0.601
same,relative viability,[4]; first compound 0.02 µM,0.514
same,relative viability,[4]; first compound 0.06325 µM,0.366
same,relative viability,[4]; first compound 0.2 µM,0.346
